Measured values reported in US4537895A, “Isoquinoline derivatives” (EGYT Gyogyszervegyeszeti Gyar, priority 1982, dated 1985).
Counter-ions that a name gives are not always drawn.

Columns and labels:
spontaneous motility = test: Test 3: spontaneous motility; assay type: in vivo; conditions: for TI (Test 3), LD/ED quotient: LD50 / ED of Test 3; for minimal effective dose: Mus musculus, ip, read-out: ED, lowest i.p. dose which still decreases the spontaneous motility (Test 3, -)
Method: 3. Lowest i.p. dose which still increases or decreases the spontaneous motility of the mice.
(§1) The acute toxicity data are determined in mice. Tests 2-6 are also carried out in mice. The doses are expressed in micromole/kg. The therapeutical index (TI) is the LD/ED quotient.
In Test 3 "+=motility increase" and "-=motility decrease."

[1] = test system: catalepsy induced by tetrabenazine; test: Test 4: inhibition of tetrabenazine-induced catalepsy; assay type: in vivo; conditions: for TI (Test 4), LD/ED quotient: LD50 / ED of Test 4; for ED50: Mus musculus, sc, read-out: ED, s.c. dose which inhibits the catalepsy induced by tetrabenazine in 50% of the mice (Test 4)
Method: (§2) 4. S.c. dose which inhibits the catalepsy induced by a 110 umole/kg dose of tetrabenazine, in 50% of the mice.
as §1
(§3) Tests 2, 8, 9 and 10 are suitable for the evaluation of the dopaminerg stimulating effect of the test compounds (potential anti-parkinson agent). Tests 4, 5, 6 and 7 give information about the catecholamine-uptake inhibiting effect (potential antidepressive activity).

stereotypy = test: Test 8: induction of stereotypy; assay type: in vivo; conditions: Rattus norvegicus, sc, rats; ">" = inactive in the given dose; read-out: Lowest s.c. dose which still induces stereotypy (Test 8)
Method: 8. The lowest s.c. dose which still induces stereotypy, in rats.
(§4) Tests 7-10 are carried out in cats and rats, the doses are expressed in micromole/kg.
as §3

[2] = test system: decrease of the rectal temperature caused by reserpine; test: Test 6: reserpine-induced decrease of rectal temperature; assay type: in vivo; conditions: for TI (Test 6), LD/ED quotient: LD50 / ED of Test 6; for minimal effective dose: Mus musculus, sc, read-out: ED, lowest s.c. dose which still hinders the decrease of the rectal temperature caused by reserpine (Test 6)
Method: 6. The lowest s.c. dose which still hinders the decrease of the rectal temperature caused by the administration of a 1,6 umole/kg dose of reserpine.
as §1, §3

[3] = test system: catalepsy induced by Haloperidol; test: Test 2: inhibition of haloperidol-induced catalepsy; assay type: in vivo; conditions: for TI (Test 2), LD/ED quotient: LD50 / ED of Test 2; for ED50: Mus musculus, sc, read-out: ED, s.c. dose which inhibits the catalepsy induced by Haloperidol in 50% of the mice (Test 2)
Method: (§5) 2. S.c. dose which inhibits the catalepsy induced by a 13 umole/kg dose of Haloperidol, in 50% of the mice.
as §1, §3

[4] = Overall comparison with Nomifensine in the pharmacological tests; assay type: in vivo; conditions: for Activity compared with Nomifensine (in words) / Therapeutical index (in words): all tests
Method: The pharmacological activity of the compounds of the present invention is determined by the following tests:
as §1, §4

[5] = Acute toxicity, s.c., LD50; parameters: species or system mice; conditions: mouse, in vivo; for LD50 at 96 h: sc, mice, 96 hour observation
Method: as §1

[6] = test system: blood pressure and nictitating membrane; test: Test 7: blood pressure and nictitating membrane effect; assay type: in vivo; conditions: Felis catus, iv, cats; ">" = inactive in the given dose; read-out: Lowest i.v. dose which still increases the blood pressure and nictitating membrane effect (Test 7)
Method: as §4, §3

[7] = test system: ptosis induced by tetrabenazine; test: Test 5: inhibition of tetrabenazine-induced ptosis; assay type: in vivo; conditions: for TI (Test 5), LD/ED quotient: LD50 / ED of Test 5; for ED50: Mus musculus, sc, read-out: ED, s.c. dose which inhibits the ptosis induced by tetrabenazine in 50% of the mice (Test 5)
Method: 5. S.c. dose which inhibits the ptosis induced by a dose of 79 umole/kg of tetrabenazine, in 50% of the mice.
as §1, §3

[8] = test system: catalepsy induced by Haloperidol / tetrabenazine; test: Comparison of anti-haloperidol (Test 2) and anti-tetrabenazine (Test 4) activity; assay type: in vivo, mice; conditions: for Quotient of the ED values of Columns 2 and 4: ED Test 2 (haloperidol) : ED Test 4 (tetrabenazine); for Antidepressant versus antiparkinson profile (in words): from quotient ED2:ED4
Method: as §5, §2, §1
On comparing the dopaminerg type anti-haloperidol test and the anti-tetrabenazine activity being characteristic of the antidepressive effect the following can be stated:
The quotient of the ED values of Columns 2 and 4 is the highest for Compound I (55:13=4.2). […] The said quotient is high in the case of Nomifensine (1.6), Compound D (1.8), Compound E (2.7) and Compound F (1.7).

prolactine level = test: Test 10: decrease of prolactine level in ovariectomised rats; assay type: in vivo; conditions: Rattus norvegicus, 96 h, after 4 days treatment with oestradiol 0.073 umole/kg, read-out: Dose which induces a significant decrease of the prolactine level (Test 10)
Method: 10. The dose which induces a significant decrease of the prolactine level after 4 days treatment with a dose of 0.073 umole/kg of oeastradiol, on three weeks earlier ovariectomised rats.
as §4, §3

CCNCC(=O)Nc1cccc2c1CN(C)CC2c1ccc(Cl)cc1 (stereo not drawn) [Compound C, 8-ethylamino-acetyl-amino-4-p-chloro-phenyl-2-methyl-1,2,3,4-tetrahydroisoquinoline-maleate]
TI (Test 3), LD/ED quotient (spontaneous motility): 16
minimal effective dose (spontaneous motility): 42 µmol/kg
TI (Test 4), LD/ED quotient [1]: 13
ED50 [1]: 51 µmol/kg
minimal effective dose (stereotypy): 68 µmol/kg
TI (Test 6), LD/ED quotient [2]: 62
minimal effective dose [2]: 11 µmol/kg
TI (Test 2), LD/ED quotient [3]: 13
ED50 [3]: 53 µmol/kg
Activity compared with Nomifensine (in words) [4]: surpasses the activity of Nomifensine in three tests
LD50 at 96 h [5]: 686 µmol/kg
minimal effective dose [6]: 1.1 µmol/kg
TI (Test 5), LD/ED quotient [7]: 49
ED50 [7]: 14 µmol/kg
Quotient of the ED values of Columns 2 and 4 [8]: 1,0

CCCCNCC(=O)Nc1cccc2c1CN(C)CC2c1ccc(C)cc1 (stereo not drawn) [Compound G, 8-butylamino-acetyl-amino-2-methyl-4-p-tolyl-1,2,3,4-tetrahydro-isoquinoline-maleate]
TI (Test 3), LD/ED quotient (spontaneous motility): 66
minimal effective dose (spontaneous motility): 10 µmol/kg
TI (Test 4), LD/ED quotient [1]: 9
ED50 [1]: 71 µmol/kg
minimal effective dose (stereotypy): 108 µmol/kg
TI (Test 6), LD/ED quotient [2]: 32
minimal effective dose [2]: 21 µmol/kg
TI (Test 2), LD/ED quotient [3]: 23
ED50 [3]: 29 µmol/kg
Activity compared with Nomifensine (in words) [4]: very high activity
Therapeutical index (in words) [4]: good therapeutical index
LD50 at 96 h [5]: 664 µmol/kg
minimal effective dose [6]: 2.1 µmol/kg
TI (Test 5), LD/ED quotient [7]: 133
ED50 [7]: 5 µmol/kg
Quotient of the ED values of Columns 2 and 4 [8]: 0,4
Antidepressant versus antiparkinson profile (in words) [8]: stronger anti-dopamine, anti-parkinsone activity

CCNCC(=O)Nc1cccc2c1CN(C)CC2c1ccc(C)cc1 (stereo not drawn) [Compound H, 8-ethylamino-acetyl-amino-2-methyl-4-p-tolyl-1,2,3,4-tetrahydro-isoquinoline maleate]
TI (Test 3), LD/ED quotient (spontaneous motility): 32
minimal effective dose (spontaneous motility): 22 µmol/kg
TI (Test 4), LD/ED quotient [1]: 7
ED50 [1]: 99 µmol/kg
minimal effective dose (stereotypy): 183 µmol/kg
TI (Test 6), LD/ED quotient [2]: 16
minimal effective dose [2]: 44 µmol/kg
TI (Test 2), LD/ED quotient [3]: 21
ED50 [3]: 33 µmol/kg
Therapeutical index (in words) [4]: good therapeutical index
LD50 at 96 h [5]: 706 µmol/kg
minimal effective dose [6]: 2.2 µmol/kg
TI (Test 5), LD/ED quotient [7]: 59
ED50 [7]: 12 µmol/kg
Quotient of the ED values of Columns 2 and 4 [8]: 0,3

CCOC(=O)Nc1cccc2c1CN(C)CC2c1ccc(Cl)cc1 (stereo not drawn) [Compound I, 8-ethoxycarbonylamino-4-p-chloro-phenyl-2-methyl-1,2,3,4-tetrahydroisoquinoline]
TI (Test 3), LD/ED quotient (spontaneous motility): 275
minimal effective dose (spontaneous motility): 7.9 µmol/kg
TI (Test 4), LD/ED quotient [1]: 167
ED50 [1]: 13 µmol/kg
minimal effective dose (stereotypy): 21 µmol/kg
TI (Test 6), LD/ED quotient [2]: 84
minimal effective dose [2]: 26 µmol/kg
TI (Test 2), LD/ED quotient [3]: 40
ED50 [3]: 55 µmol/kg
Activity compared with Nomifensine (in words) [4]: activity is higher than that of Nomifensine
Therapeutical index relative to that of Nomifensine ([4]; various tests): 2-6,8 times higher
Toxicity compared with Nomifensine (in words) [5]: toxicity is much lower
LD50 at 96 h [5]: 2180 µmol/kg
minimal effective dose (prolactine level): 26 µmol/kg
minimal effective dose [6]: 1.3 µmol/kg
TI (Test 5), LD/ED quotient [7]: 1360
ED50 [7]: 1.6 µmol/kg
Quotient of the ED values of Columns 2 and 4 [8]: 4,2
Antidepressant versus antiparkinson profile (in words) [8]: relatively a stronger antidepressant than an antiparkinsone agent

CN1Cc2c(N)cccc2C(c2ccccc2)C1 (stereo not drawn) [Nomifensine, 8-amino-4-phenyl-2-methyl-1,2,3,4-tetrahydro-isoquinoline, reference compound]
TI (Test 3), LD/ED quotient (spontaneous motility): 40
Effect on spontaneous motility (in words) (spontaneous motility; mice): increases the spontaneous motility
TI (Test 4), LD/ED quotient [1]: 30
ED50 [1]: 37 µmol/kg
minimal effective dose (stereotypy): 23 µmol/kg
TI (Test 6), LD/ED quotient [2]: 40
minimal effective dose [2]: 28 µmol/kg
TI (Test 2), LD/ED quotient [3]: 20
ED50 [3]: 56 µmol/kg
LD50 at 96 h [5]: 1130 µmol/kg
minimal effective dose (prolactine level): 28 µmol/kg
minimal effective dose [6]: 1.4 µmol/kg
TI (Test 5), LD/ED quotient [7]: 268
ED50 [7]: 4.2 µmol/kg
Quotient of the ED values of Columns 2 and 4 [8]: 1,6
